Measured values published in patent US20120070390A1, “Topical drug delivery system with dual carriers” (priority 2010, published 2012).
Read-outs that look alike come from different tables or passages of the source.

Key:
[1] = test system: MRSA; assay: Petri dish zone of inhibition test; type: cell-based, Methicillin Resistant Staph Aureus; details: FIG. 17, identical size drops (diameters of ZOA)
[2] = test system: HL-60 cells; details: cited from earlier work; for subsequent retinoid-induced TGM2 expression after priming by pretreatment: HL-60 cells, short exposure
[3] = test system: mouse embryonic stem cells and embryoid bodies; details: cited from earlier work
[4] = test system: Staph aureus; assay: Petri dish zone of inhibition comparison with control agents; type: cell-based, Staphylococcus aureus; details: FIG. 16, identical size drops (diameters of ZOA)
[5] = test system: Enterococcus faecalis; assay: as above; type: cell-based; details: FIG. 25, identical size drops
[6] = Study I: vancomycin peaks and troughs in the patient; type: in vivo, human; details: 1.5 g BID, Q12, seven doses; ranges not noted
Protocol: Fri 2/5: Detection of a Strep-A strain, confirmed by culture study. Shifted from gentamycin to vancomycin 1.5 g BID, Q12. Patient was kept on this dosing regimen until 2/8 (date of discharge from hospital).
Mon 2/8: Patient received the last of seven doses of vancomycin. Throughout all of this their peaks (within 1 hour of receiving vancomycin) and troughs (before receiving vancomycin) were normal (ranges not noted here). Patient was discharged from the hospital on this date.

[7] = test system: MRSA infection and Grade I diabetic ulcer of the left hallux with cellulitus; assay: Study III: human field study, diabetic foot lesion with MRSA cellulitus; type: in vivo; details: IV, 8 days following admission, before the invention was used
Protocol: In this embodiment, the additional ingredient to hasten a third therapeutic tissue healing effect was added. This embodiment used vitamin D in a small but medically efficacious amount.

## CO[C@@]1(NC(=O)Cc2cccs2)C(=O)N2C(C(=O)O)=C(COC(N)=O)CS[C@@H]21 [Cefoxicillin]
[1]
  zones of inhibition of control agents compared with the formulations of the invention: considerably reduced zones of inhibition

## C[S+](C)[O-] [DMSO, dimethyl sulfoxide]
[2]; DMSO
  amount at which desired cellular responses occurred: less than 2%
[2]
  subsequent retinoid-induced TGM2 expression after priming by pretreatment: increases subsequent retinoid-induced TGM2 expression
[3]
  mRNA and protein expression in epigenetic profiles: upregulation of mRNA and protein expression

## CC[C@H]1OC(=O)[C@H](C)[C@@H](O[C@H]2C[C@@](C)(OC)[C@@H](O)[C@H](C)O2)[C@H](C)[C@@H](O[C@@H]2O[C@H](C)C[C@H](N(C)C)[C@H]2O)[C@](C)(O)C[C@@H](C)C(=O)[C@H](C)[C@@H](O)[C@]1(C)O [Erythromycin]
[1]
  zones of inhibition of control agents compared with the formulations of the invention: considerably reduced zones of inhibition
[4]
  zones of inhibition of control agents compared with the formulations of the invention: considerably reduced zones of inhibition

## CN[C@H](CC(C)C)C(=O)N[C@H]1C(=O)N[C@@H](CC(N)=O)C(=O)N[C@H]2C(=O)N[C@H]3C(=O)N[C@H](C(=O)N[C@H](C(=O)O)c4cc(O)cc(O)c4-c4cc3ccc4O)[C@H](O)c3ccc(c(Cl)c3)Oc3cc2cc(c3O[C@@H]2O[C@H](CO)[C@@H](O)[C@H](O)[C@H]2O[C@H]2C[C@](C)(N)[C@H](O)[C@H](C)O2)Oc2ccc(cc2Cl)[C@H]1O [Vancomycin]
[5]
  zones of inhibition of control agents compared with the formulations of the invention: considerably reduced zones of inhibition
[6]
  peaks (within 1 hour of receiving) and troughs (before receiving): normal
[7]
  patient response to treatment: did not respond

## vitamin D
[2]
  subsequent retinoid-induced TGM2 expression after priming by pretreatment: increases subsequent retinoid-induced TGM2 expression
[2]; vitamin D
  amount at which desired cellular responses occurred: about 100 nM
